Structures are written as SMILES.

The first assay deals with cellobiose dehydrogenase. The assay is classed as biochemical, Coriolus hirsutus.
Details: not given
Take `O=C(O)CN(CCN(CC(=O)O)CC(=O)O)CC(=O)O` [EDTA]: the Relative activity amounted to 45% and the “inhibition of the enzyme” value was “weakly inhibited”.

`[N-]=[N+]=[N-].[Na+]` [NaN3, sodium azide]: the Relative activity was 46% and the “inhibition of the enzyme” value is “weakly inhibited”.

The same assay, now with this note: 1 mM.
On to `[Cl-].[Cl-].[Co+2]` [CoCl2], for which the Relative activity was 53%.

As to `[Cl][Hg][Cl]` [HgCl2], the “inhibition of the enzyme” value was “strongly inhibited”.

Consider `CCCCCCCCCCCCOS(=O)(=O)[O-].[Na+]` [SDS], for which the “inhibition of the enzyme” value is recorded as “strongly inhibited”.

Still in this assay, the particulars now being: 1 mM; incubation at 4° C. overnight.
`[Cl][Al]([Cl])[Cl]` [AlCl2] displayed a Relative activity of 23%.

`[Ba+2].[Cl-].[Cl-]` [BaCl2] came in with a Relative activity of 71%.

`[Ca+2].[Cl-].[Cl-]` [CaCl2] returned a Relative activity of 65%.

Turning to `[Cl][Cu][Cl]` [CuCl2], the Relative activity was determined as 53%.

With `O=S(=O)([O-])[O-].[Cu+2]` [CuSO4], the Relative activity turned out to be 82%.

The molecule `O=S(=O)([O-])[O-].[Fe+2]` [FeSO4] returned a Relative activity of 0%.

In the case of `[Cl][Hg][Cl]` [HgCl2], the Relative activity is 0%.

Consider `[Cl-].[Li+]` [LiCl2], for which the Relative activity is recorded as 45%.

On to `[Cl-].[Cl-].[Mg+2]` [MgCl2], for which the Relative activity is 64%.

Regarding `[Cl][Mn][Cl]` [MnCl2], the Relative activity was determined as 35%.

For the molecule `[Cl][Ni][Cl]` [NiCl2], the Relative activity is recorded as 60%.

`CCCCCCCCCCCCOS(=O)(=O)[O-].[Na+]` [SDS]: the Relative activity worked out at 0%.

`[Cl-].[Cl-].[Zn+2]` [ZnCl2]: the Relative activity turned out to be 32%.

`O=S(=O)([O-])[O-].[Zn+2]` [ZnSO4] registered a Relative activity of 72%.

(Values after patent publication US20050181485A1, “Cellulose digesting enzyme gene and utilization of the gene” (priority 2002, published 2005).)
